Test results from patent US4742053A, “3-Isoquinoliniomethyl cephalosporin derivatives” (Banyu Pharmaceutical Co., Ltd., priority 1984, dated 1988).
≈ marks a conversion by molar mass, not a printed value. Read-outs that look alike come from different tables or passages of the source.

Legend:
Test in all cases: MIC by agar plate dilution method
Type in all cases: cell-based
E. coli CSH = conditions: 10^6 CFU/ml; for MIC: Escherichia coli, read-out: Minimum Inhibitory Concentration
Protocol: (§1) The minimum inhibitory concentrations (MIC: μg/ml) of the compounds of the present invention against various microorganisms were measured by an agar plate dilution method (inoculum size: 10^6 CFU/ml) by using Sensitivity Disk Agar (Nissui) in comparison with Cefotaxime and Ceftazidime as comparative compounds.
(§2) Minimum Inhibitory Concentration (μg/ml; 10^6 CFU/ml)

E. coli ML1410/Rte16 = conditions: 10^6 CFU/ml; for MIC: Escherichia coli, ML1410/RTE16, read-out: Minimum Inhibitory Concentration, E. coli ML1410/Rte16
Protocol: as §1, §2

P. vulgaris No. 33 = conditions: P. vulgaris No. 33, 10^6 CFU/ml; for MIC: Proteus vulgaris, read-out: Minimum Inhibitory Concentration
Protocol: as §1, §2

S. aureus NIHJJC-1 = conditions: for MIC: Staphylococcus aureus
Protocol: as §1, §2

E. cloaceae Nek 39 = conditions: E. cloaceae Nek 39, 10^6 CFU/ml; for MIC: read-out: Minimum Inhibitory Concentration
Protocol: as §1, §2

K. pneumoniae No. 42 = conditions: K. pneumoniae No. 42, 10^6 CFU/ml; for MIC: Klebsiella pneumoniae, read-out: Minimum Inhibitory Concentration
Protocol: as §1, §2

P. aeruginosa AK109 = conditions: 10^6 CFU/ml; for Minimum Inhibitory Concentration: P. aeruginosa AK109; for MIC: Pseudomonas aeruginosa, AK109, P. aeruginosa AK109, read-out: Minimum Inhibitory Concentration
Protocol: as §1, §2

P. vulgaris OB1043 = conditions: 10^6 CFU/ml; for MIC: Proteus vulgaris, OB1043, P. vulgaris OB1043, read-out: Minimum Inhibitory Concentration
Protocol: as §1, §2

E. coli NIHJJC-2 = conditions: 10^6 CFU/ml; for MIC: Escherichia coli, NIHJJC2, E. coli NIHJJC-2, read-out: Minimum Inhibitory Concentration
Protocol: as §1, §2

E. coli C/Rms149 = conditions: 10^6 CFU/ml; for MIC: Escherichia coli, read-out: Minimum Inhibitory Concentration, E. coli C/Rms149
Protocol: as §1, §2

S. aureus JS-1 = conditions: S. aureus JS-1, 10^6 CFU/ml; for MIC: Staphylococcus aureus, JS1, read-out: Minimum Inhibitory Concentration
Protocol: as §1, §2

S. marcescens No. 16-2 = conditions: S. marcescens No. 16-2, 10^6 CFU/ml; for MIC: Serratia marcescens, NO.162, read-out: Minimum Inhibitory Concentration
Protocol: as §1, §2

E. coli W3630/Rms213 = conditions: 10^6 CFU/ml; for MIC: Escherichia coli, W3630/RMS213, read-out: Minimum Inhibitory Concentration, E. coli W3630/Rms213
Protocol: as §1, §2

A. calcoaceticus No. 14 = conditions: 10^6 CFU/ml; for MIC: Acinetobacter calcoaceticus, NO.14, A. calcoaceticus No. 14, read-out: Minimum Inhibitory Concentration
Protocol: as §1, §2

P. aeruginosa AKR17 = conditions: 10^6 CFU/ml; for MIC: Pseudomonas aeruginosa, AKR17, P. aeruginosa AKR17, read-out: Minimum Inhibitory Concentration
Protocol: as §1, §2

C. freundii No. 7 = conditions: C. freundii No. 7, 10^6 CFU/ml; for MIC: Citrobacter freundii, read-out: Minimum Inhibitory Concentration
Protocol: as §1, §2

P. cepacia 23 = conditions: P. cepacia 23, 10^6 CFU/ml; for MIC: Burkholderia cepacia, read-out: Minimum Inhibitory Concentration
Protocol: as §1, §2

P. mirabilis JY10 = conditions: P. mirabilis JY10, 10^6 CFU/ml; for MIC: Proteus mirabilis, read-out: Minimum Inhibitory Concentration
Protocol: as §1, §2

E. coli W3630/Rms212 = conditions: 10^6 CFU/ml; for MIC: Escherichia coli, W3630/RMS212, read-out: Minimum Inhibitory Concentration, E. coli W3630/Rms212
Protocol: as §1, §2

E. coli CSH2 = conditions: 10^6 CFU/ml; for MIC: Escherichia coli, read-out: Minimum Inhibitory Concentration
Protocol: as §1, §2

[1] = NIHJJC1, S. aureus NIHJJC-1, 10^6 CFU/ml, read-out: Minimum Inhibitory Concentration

Row | SMILES | MIC (E. coli CSH) | MIC (E. coli ML1410/Rte16) | MIC (P. vulgaris No. 33) | MIC (S. aureus NIHJJC-1; [1]) | MIC (E. cloaceae Nek 39) | MIC (K. pneumoniae No. 42) | Minimum Inhibitory Concentration (P. aeruginosa AK109) | MIC (P. vulgaris OB1043) | MIC (E. coli NIHJJC-2) | MIC (E. coli C/Rms149) | MIC (S. aureus JS-1) | MIC (S. marcescens No. 16-2) | MIC (E. coli W3630/Rms213) | MIC (A. calcoaceticus No. 14) | MIC (P. aeruginosa AKR17) | MIC (C. freundii No. 7) | MIC (P. mirabilis JY10) | MIC (E. coli W3630/Rms212) | MIC (E. coli CSH2) | MIC (P. aeruginosa AK109) | other results
1 | CC(C)(O/N=C(\C(=O)NC1C(=O)N2C(C(=O)[O-])=C(C[N+]3(C)CCc4ccccc4C3)CSC12)c1csc(N)n1)C(=O)O (single isomer, unassigned) [Isomer A of Ex. 8-E, 7-[(Z)-2-(2-aminothiazol-4-yl)-2-(1-carboxy-1-methylethoxyimino)acetamido]-3-(2-methyl-1,2,3,4-tetrahydro-2-isoquinolinium)methyl-3-cephem-4-carboxylate] | 0.1 µg/mL (≈ 0.163 µM) | 0.2 µg/mL (≈ 0.325 µM) | 0.1 µg/mL (≈ 0.163 µM) | 6.25 µg/mL (≈ 10.2 µM) | 1.56 µg/mL (≈ 2.54 µM) | 0.78 µg/mL (≈ 1.27 µM) | 6.25 µg/mL | 0.1 µg/mL (≈ 0.163 µM) | 0.2 µg/mL (≈ 0.325 µM) | 0.2 µg/mL (≈ 0.325 µM) | > 25 µg/mL | 3.12 µg/mL (≈ 5.08 µM) | 0.39 µg/mL (≈ 0.634 µM) | 25 µg/mL (≈ 40.7 µM) | 25 µg/mL (≈ 40.7 µM) | 1.56 µg/mL (≈ 2.54 µM) | 0.2 µg/mL (≈ 0.325 µM) | 0.39 µg/mL (≈ 0.634 µM) | 0.1 µg/mL (≈ 0.163 µM) | – | MIC (P. cepacia 23): 6.25 µg/mL (≈ 10.2 µM)
2 | CC(C)(O/N=C(\C(=O)NC1C(=O)N2C(C(=O)[O-])=C(C[N+]3(C)CCc4ccccc4C3)CSC12)c1csc(N)n1)C(=O)O (single isomer, unassigned) [Isomer B of Ex. 8-E, 7-[(Z)-2-(2-aminothiazol-4-yl)-2-(1-carboxy-1-methylethoxyimino)acetamido]-3-(2-methyl-1,2,3,4-tetrahydro-2-isoquinolinium)methyl-3-cephem-4-carboxylate] | – | – | – | – | – | – | 3.12 µg/mL | – | – | – | – | – | – | – | – | – | – | – | – | – | Minimum Inhibitory Concentration (E. coli CSH): 0.2 µg/mL; Minimum Inhibitory Concentration (E. coli ML1410/Rte16; E. coli ML1410/Rte16): 0.39 µg/mL; Minimum Inhibitory Concentration (P. vulgaris No. 33): 0.1 µg/mL; Minimum Inhibitory Concentration (S. aureus NIHJJC-1; S. aureus NIHJJC-1, 10^6 CFU/ml): 12.5 µg/mL; Minimum Inhibitory Concentration (E. cloaceae Nek 39): 3.12 µg/mL; Minimum Inhibitory Concentration (K. pneumoniae No. 42): 0.78 µg/mL; Minimum Inhibitory Concentration (P. vulgaris OB1043; P. vulgaris OB1043): 0.2 µg/mL; Minimum Inhibitory Concentration (E. coli NIHJJC-2; E. coli NIHJJC-2): 0.39 µg/mL; Minimum Inhibitory Concentration (E. coli C/Rms149; E. coli C/Rms149): 0.39 µg/mL; Minimum Inhibitory Concentration (S. aureus JS-1): > 25 µg/mL; Minimum Inhibitory Concentration (S. marcescens No. 16-2): 3.12 µg/mL; Minimum Inhibitory Concentration (E. coli W3630/Rms213; E. coli W3630/Rms213): 0.78 µg/mL; Minimum Inhibitory Concentration (A. calcoaceticus No. 14; A. calcoaceticus No. 14): > 25 µg/mL; Minimum Inhibitory Concentration (P. aeruginosa AKR17; P. aeruginosa AKR17): > 25 µg/mL; Minimum Inhibitory Concentration (C. freundii No. 7): 1.56 µg/mL; Minimum Inhibitory Concentration (P. cepacia 23): 6.25 µg/mL; Minimum Inhibitory Concentration (P. mirabilis JY10): 0.2 µg/mL; Minimum Inhibitory Concentration (E. coli W3630/Rms212; E. coli W3630/Rms212): 0.78 µg/mL; Minimum Inhibitory Concentration (E. coli CSH2): 0.1 µg/mL
3 | CO/N=C(\C(=O)NC1C(=O)N2C(C(=O)[O-])=C(C[N+]3(C)CCc4ccccc4C3)CSC12)c1csc(N)n1 (stereo not shown) [Ex. 1-B, 7-[(Z)-2-(2-aminothiazol-4-yl)-2-methoxyiminoacetamido]-3-(2-methyl-1,2,3,4-tetrahydro-2-isoquinolinium)methyl-3-cephem-4-carboxylate] | 0.2 µg/mL (≈ 0.369 µM) | – | 0.2 µg/mL (≈ 0.369 µM) | 0.78 µg/mL (≈ 1.44 µM) | 1.56 µg/mL (≈ 2.87 µM) | 0.2 µg/mL (≈ 0.369 µM) | – | 0.78 µg/mL (≈ 1.44 µM) | 0.1 µg/mL (≈ 0.184 µM) | 0.1 µg/mL (≈ 0.184 µM) | 3.12 µg/mL (≈ 5.75 µM) | 6.25 µg/mL (≈ 11.5 µM) | 1.56 µg/mL (≈ 2.87 µM) | 25 µg/mL (≈ 46.1 µM) | > 25 µg/mL | 1.56 µg/mL (≈ 2.87 µM) | 0.78 µg/mL (≈ 1.44 µM) | 0.2 µg/mL (≈ 0.369 µM) | 0.05 µg/mL (≈ 0.0921 µM) | 6.25 µg/mL (≈ 11.5 µM) | –
4 | CO/N=C(\C(=O)NC1C(=O)N2C(C(=O)[O-])=C(C[N+]3(C)CCc4cc(OC)c(OC)cc4C3)CSC12)c1csc(N)n1 (stereo not shown) [Ex. 2-E, 7-[(Z)-2-(2-aminothiazol-4-yl)-2-methoxyiminoacetamido]-3-(6,7-dimethoxy-2-methyl-1,2,3,4-tetrahydro-2-isoquinolinium)methyl-3-cephem-4-carboxylate] | 1.56 µg/mL (≈ 2.59 µM) | 0.78 µg/mL (≈ 1.29 µM) | 1.56 µg/mL (≈ 2.59 µM) | – | 12.5 µg/mL (≈ 20.7 µM) | 1.56 µg/mL (≈ 2.59 µM) | – | 3.12 µg/mL (≈ 5.18 µM) | 0.78 µg/mL (≈ 1.29 µM) | 0.78 µg/mL (≈ 1.29 µM) | 12.5 µg/mL (≈ 20.7 µM) | > 25 µg/mL | 3.12 µg/mL (≈ 5.18 µM) | > 25 µg/mL | > 25 µg/mL | 12.5 µg/mL (≈ 20.7 µM) | 3.12 µg/mL (≈ 5.18 µM) | 1.56 µg/mL (≈ 2.59 µM) | 0.2 µg/mL (≈ 0.332 µM) | 25 µg/mL (≈ 41.5 µM) | MIC (S. aureus NIHJJC-1; NIHJJC1, read-out: Minimum Inhibitory Concentration): 1.56 µg/mL (≈ 2.59 µM)
5 | CCO/N=C(\C(=O)NC1C(=O)N2C(C(=O)[O-])=C(C[N+]3(C)CCc4ccccc4C3)CSC12)c1csc(N)n1 (stereo not shown) [Ex. 7-D, 7-[(Z)-2-(2-aminothiazol-4-yl)-2-ethoxyiminoacetamido]-3-(2-methyl-1,2,3,4-tetrahydro-2-isoquinolinium)methyl-3-cephem-4-carboxylate] | 0.2 µg/mL (≈ 0.359 µM) | 0.39 µg/mL (≈ 0.701 µM) | 0.39 µg/mL (≈ 0.701 µM) | 0.39 µg/mL (≈ 0.701 µM) | 3.12 µg/mL (≈ 5.6 µM) | 0.78 µg/mL (≈ 1.4 µM) | – | 0.78 µg/mL (≈ 1.4 µM) | 0.39 µg/mL (≈ 0.701 µM) | 0.39 µg/mL (≈ 0.701 µM) | 6.25 µg/mL (≈ 11.2 µM) | 6.25 µg/mL (≈ 11.2 µM) | 0.78 µg/mL (≈ 1.4 µM) | 25 µg/mL (≈ 44.9 µM) | > 25 µg/mL | 3.12 µg/mL (≈ 5.6 µM) | 3.12 µg/mL (≈ 5.6 µM) | 0.78 µg/mL (≈ 1.4 µM) | 0.1 µg/mL (≈ 0.18 µM) | 6.25 µg/mL (≈ 11.2 µM) | MIC (P. cepacia 23): 6.25 µg/mL (≈ 11.2 µM)
